Laboratory results taken from PubChem BioAssay (NCI).
Values joined by “and” are separate entries in the source; they are usually repeats but may differ in a detail not shown here. Identical values can stand only once.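 A five-concentration, 48-hour dose response in 96-well plates underlies each endpoint, interpolated linearly between surrounding concentrations. GI50 is the concentration that inhibits growth by half. TGI: concentration producing complete growth inhibition.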

What follows are compounds tested on SK-MEL-2 melanoma (assay: growth of human tumour cells (NCI), 48 h).

Row | Compound | TGI | GI50
1 | CCC(=O)Nc1ccc(N=NN(C)C)cc1 | > 100 µM | 
2 | O=c1c2ccccc2nc(-c2ccccc2)n1NC(=S)Nc1ccccc1 | > 100 µM | 
3 | C[C@]12CC[C@@H]3c4ccc(O)c([N+](=O)[O-])c4CC[C@H]3[C@@H]1CC[C@@H]2NS(=O)(=O)c1cccc(Br)c1 | 5.34 µM | 2.35 µM
4 | CCOC(=O)/C(=C/c1cccc(C#N)c1)N(CC)CC | > 100 µM | 
5 | N#Cc1ccc(OC(=O)Nc2ccc(Cl)c(Cl)c2)cc1 | 18 µM | 4.13 µM
6 | C=CCN1CC2CON(C(=O)C(OC)(c3ccccc3)C(F)(F)F)C2C1C(C)C (configuration not stated) |  | 27.8 µg/mL
7 | O=S1(=O)OCCOS(=O)(=O)C1Cl | > 100 µM | 
8 | COc1cc(C2C(C(=O)Nc3cc(F)c(F)cc3F)=C(C)NC(C)=C2C(=O)Nc2cc(F)c(F)cc2F)ccc1O | 79.1 µM | 
9 | Oc1ccc(Br)cc1C=Nc1ccc(N=Cc2cc(Br)ccc2O)cc1 | > 100 µM | 
10 | CCOc1ccccc1NC(=O)C(=O)Cc1nc2ccccc2s1 | > 100 µM | 
11 | C=CCn1c2c(sc1=S)C(S)N=CN2 (configuration not stated) | > 100 µM | 
12 | Cc1cccc(N=C2NC(=O)C(CC(=O)Nc3cccc(C)c3C)S2)c1 (configuration not stated) | > 100 µM | 
13 | CN(C)CCSc1nccc(-c2cc3ccccc3s2)n1 | 33.5 µM | 
14 | O=C(O)CSc1n[nH]c(Cc2ccccc2)n1 | > 100 µM | 
15 | O=C1C(Cl)=C(Nc2ccccc2O)C(=O)N1Cc1ccccc1 | 96 µM | 30.9 µM
16 | CCOc1ccccc1NC(=O)C(C#N)C1=C(Cl)C(=O)c2ccccc2C1=O (configuration not stated) | 3.05 µM and 3.12 µM | 

What follows are compounds tested on SK-OV-3 ovarian (assay: growth of human tumour cells (NCI), 48 h).

Row | Compound | TGI | GI50
17 | OCC(O)CNc1ccnc2cc(Cl)ccc12 (configuration not stated) | > 100 µM | 
18 | Cc1cccc(C(C)C)c1NC(=O)C(=O)C(C(=O)c1ccccc1F)C1OC(=O)c2ccccc21 (configuration not stated) | 64.9 µM | 
19 | S=C1SC2=Nc3ccccc3CN2C2=NCCN12 | > 100 µM | > 100 µM
20 | CC1=C(c2cc(C(=O)Nc3ccc(Cl)cc3)nc(=S)[nH]2)Sc2ccccc2N1 | > 100 µM | 
21 | O=C(O)CN(c1ccccc1)S(=O)(=O)c1ccc([N+](=O)[O-])cc1 | > 100 µM | 
22 | CC1=C(C(=O)NNS(=O)(=O)c2ccc(C)cc2)CC(C(=O)NNS(=O)(=O)c2ccc(C)cc2)=C(C)N1 | > 100 µM | 
23 | Clc1cc(Cl)cc(Nc2ccc3cc(OCCCN4CCOCC4)ccc3n2)c1 | 7.24 µM | 2.62 µM
24 | [F][Sn]([F])([c]1ccccc1)[c]1ccccc1 | 7.49 µM | 2.31 µM
25 | N#CC(C(=O)CCC(=O)Nc1cccc(C(F)(F)F)c1)c1ccc(Cl)cc1 (configuration not stated) | > 100 µM | 
26 | Cc1cc(C(C)(C)C)cc(Cc2cc(C(C)(C)C)cc(Cc3cc(C(C)(C)C)cc(C)c3O)c2O)c1O | 27.9 µM | 
27 | COC(=O)/C(=C\c1ccc(N(CCC#N)CCC#N)cc1)NC(=O)c1cc([N+](=O)[O-])ccc1Cl | > 100 µM | 
28 | COC1=C(Br)C(=O)c2nc(C)ccc2C1=O | 33.6 µM | 
29 | COC(=O)c1cccc2cccc(C(=O)Nc3ccc(Cl)cc3)c12 | > 100 µM | 
30 | N.N.NCCCCCCCCCN.O=C([O-])CC(=O)[O-].O=C([O-])CC(=O)[O-].[Pt+4].[Pt+4] | > 100 µM | > 100 µM
31 | CC(=O)OC1C2CCC1C1C2C2(Cl)C(Cl)=C(Cl)C1(Cl)C2(Cl)Cl (configuration not stated) | 35.3 µM | 
32 | CC(C(=O)n1c2ccccc2c2ccccc21)N(c1ccccc1)c1ccccc1 (configuration not stated) | 36.2 µM | 
33 | CCOC(=O)Cn1c(=O)n(C)c(=O)c2c1ncn2Cc1ccccc1 | > 100 µM | 
34 | CCCCc1c2c(nc3c1CCC/C3=C\c1ccccc1)/C(=C/c1ccccc1)CCC2 | > 100 µM | 
35 | CC(C)(C)OC(=O)N1N=NC2C1C1CC(OCc3ccccc3)(OCc3ccccc3)C2O1 (configuration not stated) | > 100 µM | 

Row | Compound | TGI | GI50
36 | O=C1CSC(c2ccc(-c3nc4ccccc4s3)cc2)=N1 | > 100 µM | 53.2 µM
37 | O=C1C(=O)N(c2cc(Cl)ccc2Cl)C(=O)C(=O)C1c1nc2ccccc2o1 | > 100 µM | 
38 | CC1=C(C(=O)Nc2ccccc2)C(c2ccc(C3C(C(=O)Nc4ccccc4)=C(C)NC(C)=C3C(=O)Nc3ccccc3)cc2)C(C(=O)Nc2ccccc2)=C(C)N1 | 26.2 µM | 
39 | CCC(=O)Nc1ccc(N=NN(C)C)cc1 | > 100 µM | 
40 | O=c1c2ccccc2nc(-c2ccccc2)n1NC(=S)Nc1ccccc1 | > 100 µM | 
41 | C[C@]12CC[C@@H]3c4ccc(O)c([N+](=O)[O-])c4CC[C@H]3[C@@H]1CC[C@@H]2NS(=O)(=O)c1cccc(Br)c1 | 7.53 µM | 2.94 µM
42 | CCOC(=O)/C(=C/c1cccc(C#N)c1)N(CC)CC | > 100 µM | 
43 | N#Cc1ccc(OC(=O)Nc2ccc(Cl)c(Cl)c2)cc1 | 51.2 µM | 5.98 µM
44 | C=CCN1CC2CON(C(=O)C(OC)(c3ccccc3)C(F)(F)F)C2C1C(C)C (configuration not stated) |  | 40.2 µg/mL
45 | O=S1(=O)OCCOS(=O)(=O)C1Cl | > 100 µM | 
46 | O=c1nc(-c2ccccc2)cc(-c2ccccc2O)[nH]1 | > 100 µM | 
47 | Oc1ccc(Br)cc1C=Nc1ccc(N=Cc2cc(Br)ccc2O)cc1 | > 100 µM | 
48 | CCOc1ccccc1NC(=O)C(=O)Cc1nc2ccccc2s1 | > 100 µM | 
49 | C=CCn1c2c(sc1=S)C(S)N=CN2 (configuration not stated) | > 100 µM | 
50 | CN(C)CCSc1nccc(-c2cc3ccccc3s2)n1 | 94.9 µM | 
51 | O=C(O)CSc1n[nH]c(Cc2ccccc2)n1 | > 100 µM | 
52 | O=C1C(Cl)=C(Nc2ccccc2O)C(=O)N1Cc1ccccc1 | 71.9 µM | 28.5 µM
53 | CCOc1ccccc1NC(=O)C(C#N)C1=C(Cl)C(=O)c2ccccc2C1=O (configuration not stated) | 41.5 µM | 

What follows are compounds tested on SNB-75 CNS (assay: growth of human tumour cells (NCI), 48 h).

Row | Compound | TGI | GI50
54 | OCC(O)CNc1ccnc2cc(Cl)ccc12 (configuration not stated) | > 100 µM | 
55 | Cc1cccc(C(C)C)c1NC(=O)C(=O)C(C(=O)c1ccccc1F)C1OC(=O)c2ccccc21 (configuration not stated) | 45.9 µM | 
56 | Cc1cccc(C)c1NC(=O)C(=O)CC(=O)c1cccc([N+](=O)[O-])c1 | > 100 µM | 
57 | S=C1SC2=Nc3ccccc3CN2C2=NCCN12 | > 100 µM | 17.4 µM
58 | CC1=C(c2cc(C(=O)Nc3ccc(Cl)cc3)nc(=S)[nH]2)Sc2ccccc2N1 | > 100 µM | 
59 | [F][Sn]([F])([c]1ccccc1)[c]1ccccc1 | 4.61 µM | 1.7 µM
60 | Cc1cc(C(C)(C)C)cc(Cc2cc(C(C)(C)C)cc(Cc3cc(C(C)(C)C)cc(C)c3O)c2O)c1O | 15.5 µM | 
61 | COC(=O)/C(=C\c1ccc(N(CCC#N)CCC#N)cc1)NC(=O)c1cc([N+](=O)[O-])ccc1Cl | > 100 µM | 
62 | COC1=C(Br)C(=O)c2nc(C)ccc2C1=O | 33.8 µM | 
63 | COc1ccc2c3c(Nc4ccc(/C(C)=N/O)cc4)[nH]c4ccccc4c-3c(N=O)c2c1 | 75.3 µM | 44.9 µM
64 | C/C(CCn1[nH]c(=O)ccc1=O)=N\OCCCc1ccccc1 | > 100 µM | 
65 | COC(=O)c1cccc2cccc(C(=O)Nc3ccc(Cl)cc3)c12 | > 100 µM | 
66 | N.N.NCCCCCCCCCN.O=C([O-])CC(=O)[O-].O=C([O-])CC(=O)[O-].[Pt+4].[Pt+4] | > 100 µM | > 100 µM
67 | CC(=O)OC1C2CCC1C1C2C2(Cl)C(Cl)=C(Cl)C1(Cl)C2(Cl)Cl (configuration not stated) | 29.8 µM | 
68 | CC(C(=O)n1c2ccccc2c2ccccc21)N(c1ccccc1)c1ccccc1 (configuration not stated) | 37.8 µM | 
69 | CCOC(=O)Cn1c(=O)n(C)c(=O)c2c1ncn2Cc1ccccc1 | > 100 µM | 
70 | CC(C)(C)OC(=O)N1N=NC2C1C1CC(OCc3ccccc3)(OCc3ccccc3)C2O1 (configuration not stated) | > 100 µM | 
71 | O=C1CSC(c2ccc(-c3nc4ccccc4s3)cc2)=N1 | > 100 µM | > 100 µM

Row | Compound | TGI | GI50
72 | O=C1C(=O)N(c2cc(Cl)ccc2Cl)C(=O)C(=O)C1c1nc2ccccc2o1 | > 100 µM | 
73 | CC1=C(C(=O)Nc2ccccc2)C(c2ccc(C3C(C(=O)Nc4ccccc4)=C(C)NC(C)=C3C(=O)Nc3ccccc3)cc2)C(C(=O)Nc2ccccc2)=C(C)N1 | 23.7 µM | 
74 | CCC(=O)Nc1ccc(N=NN(C)C)cc1 | > 100 µM | 
75 | O=c1c2ccccc2nc(-c2ccccc2)n1NC(=S)Nc1ccccc1 | > 100 µM | 
76 | C[C@]12CC[C@@H]3c4ccc(O)c([N+](=O)[O-])c4CC[C@H]3[C@@H]1CC[C@@H]2NS(=O)(=O)c1cccc(Br)c1 | 2.7 µM | 1.19 µM
77 | CCOC(=O)/C(=C/c1cccc(C#N)c1)N(CC)CC | > 100 µM | 
78 | N#Cc1ccc(OC(=O)Nc2ccc(Cl)c(Cl)c2)cc1 | 20.6 µM | 2.78 µM
79 | C=CCN1CC2CON(C(=O)C(OC)(c3ccccc3)C(F)(F)F)C2C1C(C)C (configuration not stated) |  | 38.4 µg/mL
80 | O=S1(=O)OCCOS(=O)(=O)C1Cl | > 100 µM | 
81 | COc1cc(C2C(C(=O)Nc3cc(F)c(F)cc3F)=C(C)NC(C)=C2C(=O)Nc2cc(F)c(F)cc2F)ccc1O | 25.8 µM | 
82 | O=c1nc(-c2ccccc2)cc(-c2ccccc2O)[nH]1 | > 100 µM | 
83 | Oc1ccc(Br)cc1C=Nc1ccc(N=Cc2cc(Br)ccc2O)cc1 | > 100 µM | 
84 | CCOc1ccccc1NC(=O)C(=O)Cc1nc2ccccc2s1 | > 100 µM | 
85 | C=CCn1c2c(sc1=S)C(S)N=CN2 (configuration not stated) | > 100 µM | 
86 | Cc1cccc(N=C2NC(=O)C(CC(=O)Nc3cccc(C)c3C)S2)c1 (configuration not stated) | > 100 µM | 
87 | CN(C)CCSc1nccc(-c2cc3ccccc3s2)n1 | > 100 µM | 
88 | CCOc1ccccc1NC(=O)C(C#N)C1=C(Cl)C(=O)c2ccccc2C1=O (configuration not stated) | 3.94 µM and 3.09 µM | 1.68 µM
